The source of these data is ChEMBL document CHEMBL6109103, “Dodecapeptides derived from human cathelicidin with potent activity against carbapenem-resistant Acinetobacter baumannii” (Eur J Med Chem, 2025).

The nature of data set [1]: Toxicity in BALB/c mouse assessed as heart damage at 16 mg/kg, ip measured for 3 days by H and E staining based analysis. It counts as organism-based. The following applies: in vivo, 72 h, time 3 day.
Data set [2] can be described thus: Toxicity in BALB/c mouse assessed as liver damage at 16 mg/kg, ip measured for 3 days by H and E staining based analysis. It counts as organism-based. The following applies: in vivo, 72 h, time 3 day.
Data set [3] in a line: Toxicity in BALB/c mouse assessed as spleen damage at 16 mg/kg, ip measured for 3 days by H and E staining based analysis. In kind it is organism-based. The conditions noted are these: in vivo, 72 h, time 3 day.
Data set [4] in a line: Toxicity in BALB/c mouse assessed as lung damage at 16 mg/kg, ip measured for 3 days by H and E staining based analysis. The following applies: in vivo, 72 h, time 3 day. It counts as organism-based.
Data set [5] concerns Acinetobacter baumannii. In words: Antibacterial activity against multidrug-resistant Acinetobacter baumannii assessed as inhibition of bacterial growth incubated for 24 hrs by broth dilution assay. It counts as functional. On the technique in general: Broth dilution looks for growth in wells or tubes with falling amounts of substance.
In data set [6] the test system is Acinetobacter baumannii. In words: Antibacterial activity against Acinetobacter baumannii ATCC 19606 assessed as inhibition of bacterial growth incubated for 24 hrs by broth dilution assay. It counts as functional.
The test system of data set [7] is Staphylococcus aureus. In words: Antibacterial activity against Methicillin-resistant Staphylococcus aureus ATCC 43300 assessed as inhibition of bacterial growth incubated for 24 hrs by broth dilution assay. It counts as functional.
Data set [8] deals with Staphylococcus aureus. In words: Antibacterial activity against Staphylococcus aureus […] assessed as inhibition of bacterial growth incubated for 24 hrs by broth dilution assay. In kind it is functional.
The next data set concerns HUVEC. Briefly: Cytotoxicity against HUVEC cells assessed as cell death up to 50 microg/ml measured up to 24 hrs. It counts as toxicity, cell-based. The conditions noted are these: human, up to 50 µg/mL.
The next data set has as its system A549. Briefly: Cytotoxicity against human A549 cells assessed as cell death up to 50 microg/ml measured up to 24 hrs. It counts as toxicity, cell-based. The following applies: a549, 24 h, up to 50 µg/mL.

Converted amounts (≈) assume the structure as drawn. Residues, ends and D or L forms follow the SMILES beside them.

For `CC(C)CCCCC(=O)N[C@@H](CCN)C(=O)N[C@H](C(=O)N[C@@H](CCN)C(=O)N[C@H]1CCNC(=O)[C@H]([C@@H](C)O)NC(=O)[C@H](CCN)NC(=O)[C@H](CCN)NC(=O)[C@H](CC(C)C)NC(=O)[C@@H](Cc2ccccc2)NC(=O)[C@H](CCN)NC1=O)[C@@H](C)O.CC[C@H](C)CCCCC(=O)N[C@@H](CCN)C(=O)N[C@H](C(=O)N[C@@H](CCN)C(=O)N[C@H]1CCNC(=O)[C@H]([C@@H](C)O)NC(=O)[C@H](CCN)NC(=O)[C@H](CCN)NC(=O)[C@H](CC(C)C)NC(=O)[C@@H](Cc2ccccc2)NC(=O)[C@H](CCN)NC1=O)[C@@H](C)O` (HELM PEPTIDE1{[CC[C@H](C)CCCCC(=O)[*:2]].[Dab].T.[Dab].[Dab].[Dab].[dF].L.[Dab].[Dab].T}$PEPTIDE1,PEPTIDE1,5:R3-11:R2$$$V2.0), the Activity entry in data set [1], in data set [2], in data set [3] and in [4] was “Non-toxic” in each case.

The term MIC denotes the least concentration at which growth counts as inhibited. For the compound `CC[C@H](C)[C@H](NC(=O)[C@H](CCCCN)NC(=O)[C@H](CCC(=O)O)NC(=O)[C@H](CCCCN)NC(=O)[C@H](CO)NC(=O)[C@H](CCCCN)NC(=O)[C@H](CCCNC(=N)N)NC(=O)[C@H](Cc1ccccc1)NC(=O)[C@H](Cc1ccccc1)NC(=O)[C@H](CC(=O)O)NC(=O)CNC(=O)[C@H](CC(C)C)NC(=O)[C@@H](N)CC(C)C)C(=O)NCC(=O)N[C@@H](CCCCN)C(=O)N[C@@H](CCC(=O)O)C(=O)N[C@@H](Cc1ccccc1)C(=O)N[C@@H](CCCCN)C(=O)N[C@@H](CCCNC(=N)N)C(=O)N[C@H](C(=O)N[C@H](C(=O)N[C@@H](CCC(N)=O)C(=O)N[C@@H](CCCNC(=N)N)C(=O)N[C@H](C(=O)N[C@@H](CCCCN)C(=O)N[C@@H](CC(=O)O)C(=O)N[C@@H](Cc1ccccc1)C(=O)N[C@@H](CC(C)C)C(=O)N[C@@H](CCCNC(=N)N)C(=O)N[C@@H](CC(N)=O)C(=O)N[C@@H](CC(C)C)C(=O)N[C@H](C(=O)N1CCC[C@H]1C(=O)N[C@@H](CCCNC(=N)N)C(=O)N[C@H](C(=O)N[C@@H](CCC(=O)O)C(=O)N[C@@H](CO)C(=O)O)[C@@H](C)O)C(C)C)[C@@H](C)CC)C(C)C)[C@@H](C)CC` [CATHELICIDIN], the MIC in the data set with Acinetobacter baumannii [5] was 10 µg/mL (≈ 2.23 µM); with Acinetobacter baumannii [6], 40 µg/mL (≈ 8.9 µM); in the data set on Staphylococcus aureus [7] it was 320 µg/mL (≈ 71.2 µM); in the data set with Staphylococcus aureus [8], more than 320 µg/mL. Moreover, the Activity with HUVEC and with A549 was 29% in each case.
